# Source: patent US20090325956A1, “Aromatic amine derivative and use thereof” (priority 2006, published 2009)
# Where a name gives a salt, the structure may show the parent alone.
# Biological target: T1, SCD (rat liver microsome) (Rattus norvegicus, UniProt P07308)
# T1 construct: an enzyme reaction using rat liver microsome (20 μg) was performed for 15 min; from tissue; host or cells: rat liver microsome fraction
# T1 sequence (P07308 1-358): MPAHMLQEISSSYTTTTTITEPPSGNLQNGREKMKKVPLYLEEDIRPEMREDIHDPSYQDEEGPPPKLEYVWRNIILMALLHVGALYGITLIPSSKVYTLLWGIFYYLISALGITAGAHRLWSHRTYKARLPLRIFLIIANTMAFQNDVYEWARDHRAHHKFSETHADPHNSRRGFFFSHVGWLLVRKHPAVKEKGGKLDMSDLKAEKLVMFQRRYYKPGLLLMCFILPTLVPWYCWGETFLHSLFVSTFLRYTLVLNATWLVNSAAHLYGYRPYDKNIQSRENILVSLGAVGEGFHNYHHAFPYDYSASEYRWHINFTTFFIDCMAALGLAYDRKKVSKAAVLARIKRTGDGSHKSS
# Assay: Measurement of SCD inhibitory activity using microsome (TLC detection system)
# Format: biochemical
# Settings: test compound 10 μM; rat liver microsome (20 μg), [14C] stearoyl-CoA, 15 min
# Description: “Test Method” Measurement of SCD Inhibitory Activity Using Microsome (TLC Detection System)
# A test compound (10 mM) diluted with DMSO in advance was secondarily diluted to 3/1000 with 3× buffer (300 mmol/L NaH2PO4 [pH 7.4], 450 mM KCl, 30 mM NaF, 9 mM MgCl2, 4.5 mM glutathione [reduced form], 0.3% BSA [fatty acid free, SIGMA]). The test compound (10 μL) diluted with the assay buffer was dispensed to a PP 96-deep well block, and a microsome fraction (10 μL) diluted with a microsome buffer was added thereto. The enzyme reaction was started by the addition of 10 μL of [^14C] stearoyl-CoA (American Radiolabeled Chemicals [ARC], Inc.) diluted to 10 μCi/mL with 9 mmol/L NADH. For evaluation of the compound, an enzyme reaction using rat liver microsome (20 μg) was performed for 15 min. The reaction was quenched by the addition of 10 μL of 2.5N NaOH, a plate seal was applied, and the reaction mixture was incubated overnight in a dry heater set to 65° C. to allow saponification. Solvent extraction of fatty acid was based on the Bligh&Dyer method (1). Formic acid:methanol:chloroform (1:6:3) (200 μL) was added, the state of single layer was maintained, the mixture was sufficiently stirred, and pure water (120 μL) was added to allow separation into two layers. The lower chloroform layer (10 μL) was spotted on reversed-phase TLC plate (RP-18, 1154230001, Merck Japan, Ltd.) and developed with acetonitrile:pure water:acetic acid (95:4.5:0.5). The TLC plate was dried and transferred onto an Imaging Plate (Fuji Photo Film Co., Ltd.) for not less than 5 hr. For detection, BAS-5000 (Fuji Photo Film Co., Ltd) was used and the obtained spot images were converted to numerical values using Multi Gauge Ver2.3 (Fuji Photo Film Co., Ltd), based on which the SCD activity inhibitory rate (%) was determined.
row,Structure (SMILES),SCD activity inhibitory rate (%)
1,"CCc1cccc(NC(=O)N2CCOC(COc3cc(F)ccc3Cl)C2)n1 (centres unmarked) [Example 202, 2-[(2-chloro-5-fluorophenoxy)methyl]-N-(6-ethylpyridin-2-yl) morpholine-4-carboxamide]",92

# Same assay, conditions: test compound 10 μM; rat liver microsome (20 μg), [14C] stearoyl-CoA, 15 min; read-out: SCD activity inhibitory rate (%)
row,Structure (SMILES),inhibition at 10 µM [%]
1,"Cc1cc(C)nc(NC(=O)N2CCOC(COc3ccccc3F)C2)c1 (centres unmarked) [Example 59, N-(4,6-dimethylpyridin-2-yl)-2-[(2-fluorophenoxy)methyl]morpholine-4-carboxamide trifluoroacetate]",88
2,"NC(=O)c1ccsc1NC(=O)c1cccc(COc2cc(Cl)ccc2Cl)c1 [Example 93, 2-({3-[(2,5-dichlorophenoxy)methyl]benzoyl}amino)thiophene-3-carboxamide]",83
3,"O=C(Nc1cnn(Cc2ccc(F)cc2)c1)c1ccc(Cn2cnc3ccccc32)cc1 [Example 99, 4-(1H-benzimidazol-1-ylmethyl)-N-[1-(4-fluorobenzyl)-1H-pyrazol-4-yl]benzamide]",93
4,"Cc1cc(C)nc(NC(=O)c2ccc(Cn3cnc4ccccc43)cc2)c1 [Example 108, 4-(1H-benzimidazol-1-ylmethyl)-N-(4,6-dimethylpyridin-2-yl)benzamide]",97
5,"Cc1cc(C)nc(NC(=O)c2cc(COc3cc(Cl)ccc3Cl)ccn2)c1 [Example 113, 4-[(2,5-dichlorophenoxy)methyl]-N-(4,6-dimethylpyridin-2-yl)pyridine-2-carboxamide]",86
6,"O=C(Nc1ccc(Cn2cccn2)cc1)c1ccnc(COc2cc(Cl)ccc2Cl)c1 [Example 116, 2-[(2,5-dichlorophenoxy)methyl]-N-[4-(1H-pyrazol-1-ylmethyl)phenyl]isonicotinamide]",100
7,"Cc1nn(Cc2ccccc2)c2sc(C(=O)Nc3ccc(Cn4cccn4)cc3)cc12 [Example 118, 1-benzyl-3-methyl-N-[4-(1H-pyrazol-1-ylmethyl)phenyl]-1H-thieno[2,3-c]pyrazole-5-carboxamide]",86
8,"O=C(Nc1cnn(Cc2ccc(F)cc2)c1)c1cccc(COc2ccccc2)c1 [Example 149, N-[1-(4-fluorobenzyl)-1H-pyrazol-4-yl]-3-(phenoxymethyl)benzamide]",97
9,"O=C(Nc1ccc(Cn2cccn2)cc1)N1CCCC(COc2cc(Cl)ccc2Cl)C1 (centres unmarked) [Example 167, 3-[(2,5-dichlorophenoxy)methyl]-N-[4-(1H-pyrazol-1-ylmethyl)phenyl]piperidine-1-carboxamide]",85
10,"O=C(Nc1cnn(CCO)c1)c1cc(COc2ccccc2Cl)ccn1 [Example 169, 4-[(2-chlorophenoxy)methyl]-N-[1-(2-hydroxyethyl)-1H-pyrazol-4-yl]pyridine-2-carboxamide]",88
11,"O=C(Nc1cnn(Cc2ccc(F)cc2)c1)c1cccc(CNc2ccccc2Cl)c1 [Example 201, 3-{[(2-chlorophenyl)amino]methyl}-N-[1-(4-fluorobenzyl)-1H-pyrazol-4-yl]benzamide]",99
12,"O=C(Nc1ccc(CO)cn1)N1CCOC(COc2cc(F)ccc2Cl)C1 (centres unmarked) [Example 212, 2-[(2-chloro-5-fluorophenoxy)methyl]-N-[5-(hydroxymethyl)pyridin-2-yl]morpholine-4-carboxamide]",97
13,"CN(Cc1cccc(C(=O)Nc2cnn(Cc3ccc(F)cc3)c2)c1)c1ccccc1Cl [Example 225, 3-{[(2-chlorophenyl)(methyl)amino]methyl}-N-[1-(4-fluorobenzyl)-1H-pyrazol-4-yl]benzamide]",93
